Earlier results, collected in patent US20130302415A1, “Pharmaceutical Composition” (CIPLA Limited, priority 2010, published 2013).

Details: class II = low solubility, high permeability

In the case of `O=C1Nc2ccc(Cl)cc2[C@@](C#CC2CC2)(C(F)(F)F)O1` [Efavirenz, (S)-6-chloro-4-cyclopropylethynyl-4-trifluoromethyl-1,4-dihydro-2H-3,1-benzoxazin-2-one], the “Biopharmaceutical Classification System class” value is listed as “class II”.
